Consider eleven compounds from US5064850A, “Dihydro-3,3-diphenyl-5-(1H-pyrazol-1-ylmethyl-2(3H)-furanone and dihydro-5-((substituted-1H-pyrazol-1-yl)methyl)-3,3-diphenyl-2(3H)-furan one derivatives” (Marion Merrell Dow Inc., priority 1991, dated 1991).

Where a name gives a salt, the structure may show the parent alone.

By Kb is commonly meant the affinity of an antagonist, worked out from how it opposes an agonist.

One experiment deals with isolated guinea pig ileum.
Assay: not given
Particulars: cited from earlier work.
With `CN(C)CC1CC(c2ccccc2)(c2ccccc2)OC1=O` (centres unmarked) [3-[(dimethylamino)methyl]-4,5-dihydro-5,5-diphenyl-2(3H)furanone], the “prevention of contractions of isolated guinea pig ileum” value is recorded as “prevents contractions of isolated guinea pig ileum”.

In a further experiment the target is T1, postsynaptic muscarinic cholinergic receptors on intestinal (ileal-longitudinal) smooth muscle (Cavia porcellus, UniProt H0W1Z3).
T1 construct: The longitudinal muscle, with the myenteric plexus attached, is separated from the underlying circular muscle; from tissue; host or cells: guinea pig ileum, longitudinal muscle strip with myenteric plexus attached
T1 sequence (H0W1Z3 1-590): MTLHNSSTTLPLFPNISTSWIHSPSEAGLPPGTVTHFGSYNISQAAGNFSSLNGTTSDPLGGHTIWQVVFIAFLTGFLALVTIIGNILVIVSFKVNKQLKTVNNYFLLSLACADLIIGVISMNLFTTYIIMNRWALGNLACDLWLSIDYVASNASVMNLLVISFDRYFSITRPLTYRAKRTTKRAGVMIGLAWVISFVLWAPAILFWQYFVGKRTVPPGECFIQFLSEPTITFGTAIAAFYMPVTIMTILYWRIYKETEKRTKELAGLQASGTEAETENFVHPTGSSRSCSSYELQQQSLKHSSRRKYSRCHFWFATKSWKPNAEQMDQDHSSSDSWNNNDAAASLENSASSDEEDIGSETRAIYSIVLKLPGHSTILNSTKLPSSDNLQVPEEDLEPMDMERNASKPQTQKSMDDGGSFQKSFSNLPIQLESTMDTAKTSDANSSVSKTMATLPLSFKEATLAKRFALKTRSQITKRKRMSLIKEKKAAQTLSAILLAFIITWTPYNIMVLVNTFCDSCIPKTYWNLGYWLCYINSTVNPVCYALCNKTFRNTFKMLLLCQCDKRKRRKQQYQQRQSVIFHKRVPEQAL
The experiment in a line: Antimuscarinic Test Protocol: antagonism of carbachol-induced contraction of ileum strips (Table 1). The class given is cell-based, guinea pig. The following applies: carbachol as agonist, read-out: Anti-muscarinic Activity Kb. As for the experimental part:
Antimuscarinic Test Protocol.
Male albino guinea pigs are killed by decapitation or cervical dislocation. The cavity is opened and the small intestine is removed, with about 10 cm of the terminal ileum being discarded. The intestine is placed in a Petri dish that contains Tyrodes solution (137 mM NaCl, 2.78 mM KCl, 1.8 mM CaCl2.2H2 O, 1.1 mM MgCl2.6H2 O, 0.4 mM […], 11.8 mM NaHCO3, 5.6 mM dextrose) and cut into 3-4 cm segments. The segments are preferentially taken from the aboral end of the ileum. Each segment is carefully stretched onto a glass rod 6 mm in diameter and the remaining mesenteric tissue is cut away. The longitudinal muscle, with the myenteric plexus attached, is separated from the underlying circular muscle by gently stroking with a cotton-tipped applicator soaked in Tyrodes solution on a tangent away from the shallow longitudinal incisions made parallel to the mesenteric attachment. Using gentle traction, and taking care to keep the segment moist throughout the whole procedure, the tissue is stripped from the whole length of the segment (Paton and Zar, J. Physiol. 194:13, 1968).
Tissues are suspended with 5-0 silk suture in 10 mL water-jacketed glass tissue baths containing Tyrodes solution maintained at 37° C. and aerated with 95% O2 /5% CO2. The suture connects each tissue to an isometric force-displacement transducer (Grass or Gould) coupled to a physiograph. Each preparation is suspended under a resting tension of 0.3 g and allowed to equilibrate for 36 minutes. During this period, the baths are emptied and filled every 12 minutes with 10 mL of warm Tyrodes solution. At the end of this equilibration period, each muscle strip is conditioned by adding 10 mM carbachol to the baths. The drug remains in contact with each tissue for 1-2 minutes and then is removed from the bath with 4 rapid rinses of 10 mL of warm Tyrodes solution. The preparations are allowed to recover for an additional 12 minutes before being used in experiments.
Carbachol is dissolved in saline to produce 2×10^-2 M stock concentrations. Serial dilutions (1:10) in saline or water are made from the stock solution. Appropriate volumes of these solutions are added cumulatively to the 10 mL tissue baths in order to obtain the desired bath concentrations.
Compounds that are soluble in water or saline are dissolved in these solvents to produce 2×10^-2 or 2×10^-3 M stock concentrations. Small amounts of 1 N HCl, NaOH, or 95 ethanol may be added for those agents that are not soluble in water or saline alone. […] in dimethylsulfoxide (DMSO) to produce 4×10^-2 M stock solutions. Serial dilutions (1:10) in water are made from the stock solution. Other solvents may be used when appropriate and will be specifically described in the experimental procedure. Appropriate volumes are then added to the baths in order to obtain the desired bath concentrations.
Appropriate volumes of carbachol solutions are cumulatively added to the 10 mL tissue baths to increase the concentration of carbachol in the bath step-by-step without washing out after each single dose. With each concentration step, the tissue contracts isometrically. The next concentration is added only after the preceding contraction has reached a steady value. […] The tissue is then washed with 4 rapid rinses of 10 mL of warm Tyrodes solution and allowed to recover for 12 minutes [Van Rossum et al., Arch. Int. Pharmacodyn. 143:240, (1963) and 143:299, (1963)]. Antagonism of carbachol responses in the presence of antagonist is determined by repeating the cumulative addition procedure after the tissue has been exposed to the […] for 5 minutes.
Three or four different concentrations of antagonist are studied in the same preparations. Responses are expressed relative to the maximum contraction elicited by carbachol in the absence of antagonist.
For the compound `O=C1OC(Cn2cccn2)CC1(c1ccccc1)c1ccccc1` (centres unmarked) [Dihydro-3,3-diphenyl-5-(1H-pyrazol-1-ylmethyl)-2(3H)-furanone], the Kb is 50 nM.

Take `Cc1cc(C)n(CC2CC(c3ccccc3)(c3ccccc3)C(=O)O2)n1` (centres unmarked) [Dihydro-5-[(3,5-dimethyl-1H-pyrazol-1-yl)methyl]-3.3-diphenyl-2(3H)-furanone hydrochloride]: the Kb came to 1000 nM.

On to `Cc1ccn(CC2CC(c3ccccc3)(c3ccccc3)C(=O)O2)n1` (centres unmarked) [Dihydro-5-[(3-methyl-1H-pyrazol-1-yl)methyl]-3,3-diphenyl-2(3H)-furanone], for which the Kb is 239 nM.

Take `Cc1cnn(CC2CC(c3ccccc3)(c3ccccc3)C(=O)O2)c1` (centres unmarked) [Dihydro-5-[(4-methyl-1H-pyrazol-1-yl)methyl]-3,3-diphenyl-2(3H)-furanone]: the Kb amounted to 251 nM.

As to `CC[n+]1cccn1CC1CC(c2ccccc2)(c2ccccc2)C(=O)O1` (centres unmarked) [Ethyl dihydro-3,3-diphenyl-5-(1H-pyrazol-1-ylmethyl)-2(3H)-furanone chloride], the Kb came to 49 nM.

With `CC[n+]1c(C)ccn1CC1CC(c2ccccc2)(c2ccccc2)C(=O)O1` (centres unmarked) [Ethyl dihydro-5-[(3-methyl-1H-pyrazol-1-yl)methyl]-3,3-diphenyl-2(3H)-furanone chloride hydrate], the Kb was 52 nM.

Turning to `CC[n+]1cc(C)cn1CC1CC(c2ccccc2)(c2ccccc2)C(=O)O1` (centres unmarked) [Ethyl dihydro-5-[(4-methyl-1H-pyrazol-1-yl)methyl]-3,3-diphenyl-2(3H)-furanone chloride hydrate], the Kb is 148 nM.

Take `C[n+]1cccn1CC1CC(c2ccccc2)(c2ccccc2)C(=O)O1` (centres unmarked) [Methyl dihydro-3,3-diphenyl-5-(1H-pyrazol-1-ylmethyl)-2(3H)-furanone chloride hydrate]: the Kb amounted to 100 nM.

As to `Cc1ccn(CC2CC(c3ccccc3)(c3ccccc3)C(=O)O2)[n+]1C` (centres unmarked) [Methyl dihydro-5-[(3-methyl-1H-pyrazol-1-yl)methyl]-3,3-diphenyl-2(3H)-furanone chloride hydrate], the Kb turned out to be 142 nM.

Regarding `Cc1cn(CC2CC(c3ccccc3)(c3ccccc3)C(=O)O2)[n+](C)c1` (centres unmarked) [Methyl dihydro-5-[(4-methyl-1H-pyrazol-1-yl)methyl]-3,3-diphenyl-2(3H)-furanone chloride hydrate], the Kb was determined as 117 nM.
